target: phosphorylated active hERK2 enzyme (Homo sapiens (Human), UniProt P28482); conditions: not given
Sequence (P28482 whole entry): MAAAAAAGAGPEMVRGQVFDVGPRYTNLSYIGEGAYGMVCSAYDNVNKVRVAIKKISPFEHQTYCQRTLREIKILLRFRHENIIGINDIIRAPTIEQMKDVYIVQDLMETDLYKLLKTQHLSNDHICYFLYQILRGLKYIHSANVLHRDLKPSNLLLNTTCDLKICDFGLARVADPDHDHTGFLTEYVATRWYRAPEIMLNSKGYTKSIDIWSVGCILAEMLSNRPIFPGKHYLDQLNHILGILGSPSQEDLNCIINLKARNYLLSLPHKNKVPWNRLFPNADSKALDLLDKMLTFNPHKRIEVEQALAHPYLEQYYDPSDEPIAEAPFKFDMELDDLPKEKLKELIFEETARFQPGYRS

IC50 [nM] | Structure (SMILES)
33.7 | CCO[C@H]1CCC[C@@H]1NC(=O)Nc1cc2cnn(-c3ccnc(C)c3)c2cn1 (racemic) [Example 147, Racemic 1-[(1S,2S) and (1R,2R)-2-ethoxycyclopentyl]-3-[1-(2-methylpyridin-4-yl)-1H-pyrazolo[3,4-c]pyridin-5-yl]urea]
122 | CO[C@H]1CCCC[C@@H]1NC(=O)Nc1cc2cnn(-c3ccnc(C)c3)c2cn1 (racemic) [Example 145, Racemic 1-[(1S,2S) and (1R,2R)-2-methoxycyclohexyl]-3-[1-(2-methylpyridin-4-yl)-1H-pyrazolo[3,4-c]pyridin-5-yl)urea]
7.34 | Cc1cc(-n2ncc3cc(NC(=O)N[C@H]4CCC[C@@H]4c4ccccc4)ncc32)ccn1 (racemic) [Example 168, Racemic trans 1-[1-(2-methylpyridin-4-yl)-1H-pyrazolo[3,4-c]pyridin-5-yl]-3-[(1S,2R) and (1R,2S)-2-phenylcyclopentyl]urea]
4.29 | Cc1cc(-n2ncc3cc(NC(=O)N[C@@H](c4ccccc4)C(C)(C)O)nc(CO)c32)ccn1 [Example 254, 1-[7-(hydroxymethyl)-1-(2-methylpyridin-4-yl)-1H-pyrazolo[3,4-c]pyridin-5-yl]-3-[(1S)-2-hydroxy-2-methyl-1-phenylpropyl]urea]

same assay, conditions: read-out: ERK2 IC50; IMAP-FP assay; 0.5 nM hERK2, 30 μM ATP; 10 point titration, 3 μM starting concentration

IC50 [nM] | Structure (SMILES)
0.524 | COc1cccc(F)c1CN1CCC[C@@H](NC(=O)Nc2cc3cnn(-c4ccnc(C)c4)c3cn2)C1 [Example 56, 1-[(3R)-1-(2-fluoro-6-methoxybenzyl)piperidin-3-yl]-3-[1-(2-methylpyridin-4-yl)-1H-pyrazolo[3,4-c]pyridin-5-yl]urea]
707 | Cc1cc(-n2ncc3cc(NC(=O)NCc4sc(C(C)C)nc4C)ncc32)ccn1 [Example 68, 1-{[4-methyl-2-(1-methylethyl)-1,3-thiazol-5-yl]methyl}-3-[1-[2-methylpyridin-4-yl)-1H-pyrazolo[3,4-c]pyridin-5-yl]urea]
147 | C[C@@H](NC(=O)Nc1cc2cnn(C3CCOCC3)c2cn1)c1ccccc1 [Example 238, 1-[(1R)-1-phenylethyl]-3-[1-(tetrahydro-2H-pyran-4-yl)-1H-pyrazolo[3,4-c]pyridin-5-yl]urea]
41 | C[C@@H](NC(=O)Nc1cc2cn[nH]c2c(CO)n1)c1ccccc1 [Example 229, (R)-1-(7-(hydroxymethyl)-1H-pyrazolo[3,4-c]pyridin-5-yl)-3-(1-phenylethyl)urea]
43.7 | CCCn1ncc2cc(NC(=O)N[C@H](C)c3ccccc3)nc(CO)c21 [Example 305, 1-[7-(hydroxymethyl)-1-propyl-1H-pyrazolo[3,4-c]pyridin-5-yl]-3-[(1R)-1-phenylethyl]urea]
0.689 | Cc1cc(-n2ncc3cc(NC(=O)N[C@H]4CN(C)C[C@@H]4CCc4ccccc4)ncc32)ccn1 [Example 115, 1-[(3R,4S)-1-methyl-4-(2-phenylethyl)pyrrolidin-3-yl]-3-[1-(2-methylpyridin-4-yl)-1H-pyrazolo[3,4-c]-pyridin-5-yl)urea]
125 | C[C@@H](NC(=O)Nc1cc2cnn(C3CCCC3)c2c(CO)n1)c1ccccc1 [Example 307, 1-[1-cyclopentyl-7-(hydroxymethyl)-1H-pyrazolo[3,4-c]pyridin-5-yl]-3-[(1R)-1-phenylethyl]urea]
7.66 | Cc1cc(-n2ncc3cc(NC(=O)NCC(CO)c4ccccc4)ncc32)ccn1 (centres unmarked) [Example 49, 1-(3-hydroxy-2-phenylpropyl)-3-[1-(2-methylpyridin-4-yl)-1H-pyrazolo[3,4-c]pyridin-5-yl]urea]
2.28 | Cc1cc(-n2ncc3cc(NC(=O)N[C@H](C)c4ccc(F)cc4)ncc32)ccn1 [Example 223, (R)-1-(1-(4-fluorophenyl)ethyl)-3-(1-(2-methylpyridin-4-yl)-1H-pyrazolo[3,4-c]pyridin-5-yl)urea]
122 | Cc1cc(-n2ncc3cc(NC(=O)NCC4CN(C(C)C(F)(F)F)C4)ncc32)ccn1 (centres unmarked) [Example 27, 1-[1-(2-methylpyridin-4-yl)-1H-pyrazolo[3,4-c]pyridin-5-yl]-3-{[1-(2,2,2-trifluoro-1-methylethyl)azetidin-3-yl]methyl}urea]
171 | O=C(NCc1cccnc1)Nc1cc2cnn(-c3ccncc3)c2cn1 [Example 39, 1-(pyridin-3-ylmethyl)-3-(1-pyridin-4-yl-1H-pyrazolo[3,4-c]pyridin-5-yl)urea]
160 | C[C@@H](NC(=O)Nc1cc2cnn(CCO)c2c(CO)n1)c1ccccc1 [Example 310, 1-[1-(2-hydroxyethyl)-7-(hydroxymethyl)-1H-pyrazolo[3,4-c]pyridin-5-yl]-3-[(1R)-1-phenylethyl]urea]
5.38 | Cc1cc(-n2ncc3cc(NC(=O)NCc4nonc4C)ncc32)ccn1 [Example 118, 1-[(4-methyl-1,2,5-oxadiazol-3-yl)methyl]-3-[1-(2-methylpyridin-4-yl)-1H-pyrazolo[3,4-c]pyridin-5-yl]urea]
516 | C[C@@H](NC(=O)Nc1cc2cnn(-c3ccc(F)cc3)c2c(CN)n1)c1ccccc1 [Example 319, 1-[7-(aminomethyl)-1-(4-fluorophenyl)-1H-pyrazolo[3,4-c]pyridin-5-yl]-3-[(1R)-1-phenylethyl]urea]
1.09 | CNC(=O)[C@@H](NC(=O)Nc1cc2cnn(-c3ccnc(C)c3)c2cn1)c1ccccc1 [Example 142, (2S)-N-methyl-2-({[1-(2-methylpyridin-4-yl)-1H-pyrazolo[3,4-c]pyridin-5-yl]carbamoyl}amino)-2-phenylethanamide]
34.7 | O=C(Nc1cc2cnn(-c3ccncc3)c2cn1)NC1CCCc2ccccc21 (centres unmarked) [Example 10, 1-(1-pyridin-4-yl-1H-pyrazolo[3,4-c]pyridin-5-yl)-3-(1,2,3,4-tetrahydronaphthalen-1-yl)urea]
127 | Cc1cc(-n2ncc3cc(NC(=O)N[C@H]4CCCC[C@@H]4N(C)C)ncc32)ccn1 [Example 143, 1-[(1S,2S)-2-(dimethylamino)cyclohexyl]-3-[1-(2-methylpyridin-4-yl)-1H-pyrazolo[3,4-c]pyridin-5-yl)urea]
2.66 | CCC(O)(CC)[C@@H](NC(=O)Nc1cc2cnn(-c3ccnc(C)c3)c2cn1)c1ccccc1 [Example 293, 1-[(1S)-2-ethyl-2-hydroxy-1-phenylbutyl]-3-[1-(2-methylpyridin-4-yl)-1H-pyrazolo[3,4-c]pyridin-5-yl]urea]
0.182 | Cc1cc(-n2ncc3cc(NC(=O)N[C@H]4CN(C)C[C@@H]4CCc4ccccc4)ncc32)ccn1 [Example 185, 1-[(3R,4S)-1-methyl-4-(2-phenylethyl)pyrrolidin-3-yl]-3-[1-(2-methylpyridin-4-yl)-1H-pyrazolo[3,4-c]pyridin-5-yl]urea]
178 | CC(C)Cn1ncc2cc(NC(=O)N[C@H](C)c3ccccc3)nc(CO)c21 [Example 306, 1-[7-(hydroxymethyl)-1-(2-methylpropyl)-1H-pyrazolo[3,4-c]pyridin-5-yl]-3-[(1R)-1-phenylethyl]urea]
296 | COCCn1ncc2cc(NC(=O)N[C@H](C)c3ccccc3)nc(CO)c21 [Example 312, 1-[7-(hydroxymethyl)-1-(2-methoxyethyl)-1H-pyrazolo[3,4-c]pyridin-5-yl]-3-[(1R)-1-phenylethyl]urea]
1.29 | CC(C)(O)[C@@H](NC(=O)Nc1cc2cnn(-c3ccc(F)cc3)c2cn1)c1ccc(F)cc1 [Example 295, 1-[(1S)-1-(4-fluorophenyl)-2-hydroxy-2-methylpropyl]-3-[1-(4-fluorophenyl)-1H-pyrazolo[3,4-c]pyridin-5-yl]urea]
2430 | O=C(Nc1cc2cnn(Cc3ccncc3)c2cn1)N[C@H](CO)c1ccccc1 [Example 261, 1-[(1S)-2-hydroxy-1-phenylethyl]-3-[1-(pyridin-4-ylmethyl)-1H-pyrazolo[3,4-c]pyridin-5-yl]urea]
1.56 | Cn1cc2cc(-n3ncc4cc(NC(=O)NC(c5ccccc5)c5cnco5)ncc43)ccc2n1 (centres unmarked) [Example 35, 1-[1-(2-methyl-2H-indazol-5-yl)-1H-pyrazolo[3,4-c]pyridin-5-yl]-3-[1,3 oxazol-5-yl(phenyl)methyl]urea]
6.38 | Cc1cc(-n2ncc3cc(NC(=O)NCCOc4ccccc4F)ncc32)ccn1 [Example 87, 1-[2-(2-fluorophenoxy)ethyl]-3-[1-(2-methylpyridin-4-yl)-1H-pyrazolo[3,4-c]pyridin-5-yl)urea]
70.1 | Cc1cc(-n2ncc3cc(NC(=O)N[C@@H]4CN(C)C[C@H]4c4ccc(C)s4)ncc32)ccn1 [Example 188, 1-[(3S,4R)-1-methyl-4-(5-methylthiophen-2-yl)pyrrolidin-3-yl]-3-[1-(2-methylpyridin-4-yl)-1H-pyrazolo[3,4-c]pyridin-5-yl]urea]
0.509 | Cc1cc(-n2ncc3cc(NC(=O)N[C@H]4CN(C)C[C@@H]4c4ccccc4C(F)(F)F)ncc32)ccn1 [Example 191, 1-[1-(2-methylpyridin-4-yl)-1H-pyrazolo[3,4-c]pyridin-5-yl]-3-{(3R,4S)-1-methyl-4-[2-(trifluoromethyl)-phenyl]pyrrolidin-3-yl}urea]
8.03 | O=C(NCc1ccc(Cl)cc1)Nc1cc2cnn(-c3ccncc3)c2cn1 [Example 42, 1-(4-chlorobenzyl)-3-(1-pyridin-4-yl-1H-pyrazolo[3,4-c]pyridin-5-yl)urea]
13.9 | Cc1cc(-n2ncc3cc(NC(=O)N[C@H]4CCC[C@H]4Cc4ccccc4)ncc32)ccn1 [Example 160, 1-[(1S,2S)-2-benzylcyclopentyl]-3-[1-(2-methylpyridin-4-yl)-1H-pyrazolo[3,4-c]pyridin-5-yl)urea]
3.33 | Cc1cc(-n2ncc3cc(NC(=O)N[C@H](C)c4ccc(Cl)c(Cl)c4)ncc32)ccn1 [Example 220, 1-[(1R)-1-(3,4-dichlorophenyl)ethyl]-3-[1-(2-methylpyridin-4-yl)-1H-pyrazolo[3,4-c]pyridin-5-yl]urea]

Structure (SMILES) | IC50 [nM]
Cc1cc(-n2ncc3cc(NC(=O)NCCF)ncc32)ccn1 [Example 110, 1-(2-fluoroethyl)-3-[1-(2-methylpyridin-4-yl)-1H-pyrazolo[3,4-c]pyridin-5-yl]urea] | 106

Source: patent US9884048B2, “ERK inhibitors” (Merck Sharp & Dohme Corp., priority 2014, dated 2018)
